Results from patent EP0908457B1, “3-(1,2-benzisothiazol- and isoxazol-5-Y1)-2,4(1H,3H)-pyrimidinedione or thione and 3-(1,2-benzisothiazol- and isoxazol-5-y1)-4(3H)-pyrimidinone or thione herbicidal agents” (BASF AKTIENGESELLSCHAFT, priority 1997, dated 1999).

Tests used:
[1] = test system: Echinochloa oryzoides (Ard.) Fritsch.; experiment: Preemergence weed control under flooded paddy conditions, ECHORC (Watergrass (Calif.)); assay type: in vivo; conditions: flooded paddy; note: meaning of each grade not given here
[2] = test system: Oryza sativa, (L.) Tebonnet; experiment: Rice tolerance to post-transplant applications under flooded paddy conditions (Example 187), ORYSAT (Rice, Tebonnet); for herbicidal effect rating ORYSAT: meaning of each grade not given here
[3] = test system: Monochoria vaginalis, Presl.; experiment: Preemergence weed control under flooded paddy conditions, MOOVA (Monochoria); assay type: in vivo; conditions: flooded paddy; note: meaning of each grade not given here
[4] = test system: Cyperus serotinus, Rottb.; experiment: Preemergence weed control under flooded paddy conditions, CYPSE (Flatsedge); assay type: in vivo; note: meaning of each grade not given here
Cyperus iria = experiment: Preemergence weed control under flooded paddy conditions, CYPIR (Rice Flatsedge); assay type: in vivo; conditions: flooded paddy; note: meaning of each grade not given here
Sagittaria pygmaea, L. = experiment: Preemergence weed control under flooded paddy conditions, SAGPY (Arrowhead (Pygmaea)); assay type: in vivo; conditions: flooded paddy; note: meaning of each grade not given here
[5] = Rate 0.0320 kg/ha, preemergence, rated 3-4 weeks after treatment
[6] = Rate 0.0620 kg/ha, preemergence, rated 3-4 weeks after treatment
[7] = Rate 0.1250 kg/ha, preemergence, rated 3-4 weeks after treatment
[8] = Rate 0.2500 kg/ha, preemergence, rated 3-4 weeks after treatment
[9] = Rate 0.5000 kg/ha, preemergence, rated 3-4 weeks after treatment
[10] = Rate 0.0320 kg/ha, rated 3-4 weeks after treatment
[11] = Rate 0.0620 kg/ha, rated 3-4 weeks after treatment
[12] = Rate 0.1250 kg/ha, rated 3-4 weeks after treatment
[13] = Rate 0.2500 kg/ha, rated 3-4 weeks after treatment
[14] = Rate 0.5000 kg/ha, rated 3-4 weeks after treatment
[15] = 0.0313 kg/ha, preemergence weeds, rated three to four weeks after treatment
[16] = 0.0625 kg/ha, preemergence weeds, rated three to four weeks after treatment
[17] = 0.1250 kg/ha, preemergence weeds, rated three to four weeks after treatment
[18] = 0.2500 kg/ha, preemergence weeds, rated three to four weeks after treatment
[19] = Rate 0.0320 kg/ha, preemergence, rated three to four weeks after treatment
[20] = Rate 0.0620 kg/ha, preemergence, rated three to four weeks after treatment
[21] = Rate 0.1250 kg/ha, preemergence, rated three to four weeks after treatment
[22] = Rate 0.2500 kg/ha, preemergence, rated three to four weeks after treatment

CCS(=O)(=O)NC(=O)COc1ccc(C)cc1-c1nsc2ccc(-n3c(=O)cc(C(F)(F)F)n(C)c3=O)cc12 [Example 554, Acetamide, 2-{{2-{5-[3,6-dihydro-3-methyl-2,6-dioxo-4-(trifluoromethyl)-1(2H)-pyrimidinyl)-1,2-benzisothiazol-3-yl}-p-tolyl}oxy}-N-(ethylsulfonyl)-]
herbicidal effect rating, ECHORC [1, 5]: 3.0
herbicidal effect rating, ECHORC [1, 6]: 4.1
herbicidal effect rating, ECHORC [1, 7]: 5.7
herbicidal effect rating, ECHORC [1, 8]: 9.0
herbicidal effect rating, ECHORC [1, 9]: 7.0
herbicidal effect rating ORYSAT [2, 10]: 4.0
herbicidal effect rating ORYSAT [2, 11]: 4.0
herbicidal effect rating ORYSAT [2, 12]: 6.0
herbicidal effect rating ORYSAT [2, 13]: 7.0
herbicidal effect rating ORYSAT [2, 14]: 6.0
herbicidal effect rating, MOOVA [3, 5]: 9.0
herbicidal effect rating, MOOVA [3, 6]: 9.0
herbicidal effect rating, MOOVA [3, 7]: 9.0
herbicidal effect rating, MOOVA [3, 8]: 9.0
herbicidal effect rating, MOOVA [3, 9]: 9.0
herbicidal effect rating, CYPSE [4, 5]: 0.0
herbicidal effect rating, CYPSE [4, 6]: 0.0
herbicidal effect rating, CYPSE [4, 7]: 4.0
herbicidal effect rating, CYPSE [4, 8]: 9.0
herbicidal effect rating, CYPSE [4, 9]: 9.0
herbicidal effect rating, CYPIR (Cyperus iria; [5]): 2.0
herbicidal effect rating, CYPIR (Cyperus iria; [6]): 7.0
herbicidal effect rating, CYPIR (Cyperus iria; [7]): 9.0
herbicidal effect rating, CYPIR (Cyperus iria; [8]): 9.0
herbicidal effect rating, CYPIR (Cyperus iria; [9]): 5.0
herbicidal effect rating, SAGPY (Sagittaria pygmaea, L.; [5]): 0.0
herbicidal effect rating, SAGPY (Sagittaria pygmaea, L.; [6]): 0.0
herbicidal effect rating, SAGPY (Sagittaria pygmaea, L.; [7]): 0.0
herbicidal effect rating, SAGPY (Sagittaria pygmaea, L.; [8]): 9.0
herbicidal effect rating, SAGPY (Sagittaria pygmaea, L.; [9]): 0.0

CC=CCOC(=O)C(C)(C)Oc1ccc(C)cc1-c1nsc2ccc(-n3c(=O)cc(C(F)(F)F)n(C)c3=O)cc12 [Example 529, Propionic acid, 2-{{2-{5-[3,6-dihydro-3-methyl-2,6-dioxo-4-(trifluoromethyl)-1(2H)-pyrimidinyl]-1,2-benzisothiazol-3-yl}-p-tolyl}oxy}-2-methyl-, 2-butenyl ester]
herbicidal effect rating, ECHORC [1, 5]: 7.0
herbicidal effect rating, ECHORC [1, 6]: 9.0
herbicidal effect rating, ECHORC [1, 7]: 9.0
herbicidal effect rating, ECHORC [1, 8]: 9.0
herbicidal effect rating ORYSAT [2, 10]: 0.0
herbicidal effect rating ORYSAT [2, 11]: 0.0
herbicidal effect rating ORYSAT [2, 12]: 3.0
herbicidal effect rating ORYSAT [2, 13]: 9.0
herbicidal effect rating, MOOVA [3, 5]: 3.0
herbicidal effect rating, MOOVA [3, 6]: 3.0
herbicidal effect rating, MOOVA [3, 7]: 3.0
herbicidal effect rating, MOOVA [3, 8]: 0.0
herbicidal effect rating, CYPSE [4, 5]: 0.0
herbicidal effect rating, CYPSE [4, 6]: 0.0
herbicidal effect rating, CYPSE [4, 7]: 0.0
herbicidal effect rating, CYPSE [4, 8]: 0.0
herbicidal effect rating, CYPIR (Cyperus iria; [5]): 3.0
herbicidal effect rating, CYPIR (Cyperus iria; [6]): 3.0
herbicidal effect rating, CYPIR (Cyperus iria; [7]): 3.0
herbicidal effect rating, CYPIR (Cyperus iria; [8]): 0.0
herbicidal effect rating, SAGPY (Sagittaria pygmaea, L.; [5]): 9.0
herbicidal effect rating, SAGPY (Sagittaria pygmaea, L.; [6]): 9.0
herbicidal effect rating, SAGPY (Sagittaria pygmaea, L.; [7]): 9.0
herbicidal effect rating, SAGPY (Sagittaria pygmaea, L.; [8]): 9.0

Cn1c(C(F)(F)F)cc(=O)n(-c2ccc3snc(N4CCOCC4)c3c2)c1=O [Example 116, 1-Methyl-3-(3-morpholino-1,2-benzisothiazol-5-yl)-6-(trifluoromethyl)-2,4(1H,3H)-pyrimidinedione]
herbicidal effect rating, ECHORC [1, 15]: 0.0
herbicidal effect rating, ECHORC [1, 16]: 0.0
herbicidal effect rating, ECHORC [1, 17]: 0.0
herbicidal effect rating, ECHORC [1, 18]: 0.0
herbicidal effect rating, ORYSAT (rice tolerance) ([2]; 0.0313 kg/ha, rated three to four weeks after treatment): 0.0
herbicidal effect rating, ORYSAT (rice tolerance) ([2]; 0.0625 kg/ha, rated three to four weeks after treatment): 0.0
herbicidal effect rating, ORYSAT (rice tolerance) ([2]; 0.1250 kg/ha, rated three to four weeks after treatment): 0.0
herbicidal effect rating, ORYSAT (rice tolerance) ([2]; 0.2500 kg/ha, rated three to four weeks after treatment): 0.0
herbicidal effect rating, MOOVA [3, 15]: 0.0
herbicidal effect rating, MOOVA [3, 16]: 2.0
herbicidal effect rating, MOOVA [3, 17]: 8.0
herbicidal effect rating, MOOVA [3, 18]: 8.0
herbicidal effect rating, CYPSE [4, 15]: 0.0
herbicidal effect rating, CYPSE [4, 16]: 0.0
herbicidal effect rating, CYPSE [4, 17]: 0.0
herbicidal effect rating, CYPSE [4, 18]: 0.0
herbicidal effect rating, CYPIR (Cyperus iria; [15]): 0.0
herbicidal effect rating, CYPIR (Cyperus iria; [16]): 0.0
herbicidal effect rating, CYPIR (Cyperus iria; [17]): 0.0
herbicidal effect rating, CYPIR (Cyperus iria; [18]): 0.0
herbicidal effect rating, SAGPY (Sagittaria pygmaea, L.; [15]): 0.0
herbicidal effect rating, SAGPY (Sagittaria pygmaea, L.; [16]): 0.0
herbicidal effect rating, SAGPY (Sagittaria pygmaea, L.; [17]): 0.0
herbicidal effect rating, SAGPY (Sagittaria pygmaea, L.; [18]): 0.0

COCCCOCCCOC(=O)COc1ccc(C)cc1-c1nsc2ccc(-n3c(=O)cc(C(F)(F)F)n(C)c3=O)cc12 [Example 536, Acetic acid, {{2-{5-[3,6-dihydro-3-methyl-2,6-dioxo-4-(trifluoromethyl)-1(2H)-pyrimidinyl]-1,2-benzisothiazol-3-yl}-p-tolyl}oxy}-, 3-(3-methoxypropoxy)propyl ester]
herbicidal effect rating, ECHORC [1, 5]: 3.0
herbicidal effect rating, ECHORC [1, 6]: 4.0
herbicidal effect rating, ECHORC [1, 7]: 5.0
herbicidal effect rating, ECHORC [1, 8]: 9.0
herbicidal effect rating ORYSAT [2, 10]: 0.0
herbicidal effect rating ORYSAT [2, 11]: 0.0
herbicidal effect rating ORYSAT [2, 12]: 1.0
herbicidal effect rating ORYSAT [2, 13]: 4.0
herbicidal effect rating, MOOVA [3, 5]: 9.0
herbicidal effect rating, MOOVA [3, 6]: 9.0
herbicidal effect rating, MOOVA [3, 7]: 9.0
herbicidal effect rating, MOOVA [3, 8]: 9.0
herbicidal effect rating, CYPSE [4, 5]: 0.0
herbicidal effect rating, CYPSE [4, 6]: 0.0
herbicidal effect rating, CYPSE [4, 7]: 0.0
herbicidal effect rating, CYPSE [4, 8]: 0.0
herbicidal effect rating, CYPIR (Cyperus iria; [5]): 0.0
herbicidal effect rating, CYPIR (Cyperus iria; [6]): 0.0
herbicidal effect rating, CYPIR (Cyperus iria; [7]): 0.0
herbicidal effect rating, CYPIR (Cyperus iria; [8]): 4.0
herbicidal effect rating, SAGPY (Sagittaria pygmaea, L.; [5]): 0.0
herbicidal effect rating, SAGPY (Sagittaria pygmaea, L.; [6]): 0.0
herbicidal effect rating, SAGPY (Sagittaria pygmaea, L.; [7]): 0.0
herbicidal effect rating, SAGPY (Sagittaria pygmaea, L.; [8]): 0.0

Cc1ccc(OCC(=O)NS(=O)(=O)C(C)C)c(-c2nsc3ccc(-n4c(=O)cc(C(F)(F)F)n(C)c4=O)cc23)c1 [Example 560, Acetamide, 2-{{2-{5-[3,6-dihydro-3-methyl-2,6-dioxo-4-(trifluoromethyl)-1(2H)-pyrimidinyl]-1,2-benzisothiazol-3-yl}-p-tolyl}oxy}-N-(isopropylsulfonyl)-]
herbicidal effect rating, ECHORC [1, 5]: 2.0
herbicidal effect rating, ECHORC [1, 6]: 3.0
herbicidal effect rating, ECHORC [1, 7]: 4.6
herbicidal effect rating, ECHORC [1, 8]: 9.0
herbicidal effect rating, ECHORC [1, 9]: 7.0
herbicidal effect rating ORYSAT [2, 10]: 3.0
herbicidal effect rating ORYSAT [2, 11]: 3.0
herbicidal effect rating ORYSAT [2, 12]: 2.0
herbicidal effect rating ORYSAT [2, 13]: 4.0
herbicidal effect rating ORYSAT [2, 14]: 2.0
herbicidal effect rating, MOOVA [3, 5]: 8.0
herbicidal effect rating, MOOVA [3, 6]: 9.0
herbicidal effect rating, MOOVA [3, 7]: 9.0
herbicidal effect rating, MOOVA [3, 8]: 9.0
herbicidal effect rating, MOOVA [3, 9]: 9.0
herbicidal effect rating, CYPSE [4, 5]: 0.0
herbicidal effect rating, CYPSE [4, 6]: 2.0
herbicidal effect rating, CYPSE [4, 7]: 7.0
herbicidal effect rating, CYPSE [4, 8]: 9.0
herbicidal effect rating, CYPSE [4, 9]: 9.0
herbicidal effect rating, CYPIR (Cyperus iria; [5]): 0.0
herbicidal effect rating, CYPIR (Cyperus iria; [6]): 2.0
herbicidal effect rating, CYPIR (Cyperus iria; [7]): 7.0
herbicidal effect rating, CYPIR (Cyperus iria; [8]): 9.0
herbicidal effect rating, CYPIR (Cyperus iria; [9]): 3.0
herbicidal effect rating, SAGPY (Sagittaria pygmaea, L.; [5]): 0.0
herbicidal effect rating, SAGPY (Sagittaria pygmaea, L.; [6]): 0.0
herbicidal effect rating, SAGPY (Sagittaria pygmaea, L.; [7]): 0.0
herbicidal effect rating, SAGPY (Sagittaria pygmaea, L.; [8]): 0.0
herbicidal effect rating, SAGPY (Sagittaria pygmaea, L.; [9]): 0.0

Cn1c(C(F)(F)F)cc(=O)n(-c2ccc3snc(C(C#N)=Cc4ccc(O)cc4)c3c2)c1=O [Example 600, 1,2-Benzisothiazole-3-acetonitrile, 5-[3,6-dihydro-3-methyl-2,6-dioxo-4-(trifluoromethyl)-1(2H)-pyrimidinyl]-alpha-(p-hydroxybenzylidene)-]
herbicidal effect rating, ECHORC [1, 19]: 0.0
herbicidal effect rating, ECHORC [1, 20]: 0.0
herbicidal effect rating, ECHORC [1, 21]: 0.0
herbicidal effect rating, ECHORC [1, 22]: 2.0
herbicidal effect rating ORYSAT ([2]; Rate 0.0320 kg/ha, rated three to four weeks after treatment): 3.0
herbicidal effect rating ORYSAT ([2]; Rate 0.0620 kg/ha, rated three to four weeks after treatment): 3.0
herbicidal effect rating ORYSAT ([2]; Rate 0.1250 kg/ha, rated three to four weeks after treatment): 4.0
herbicidal effect rating ORYSAT ([2]; Rate 0.2500 kg/ha, rated three to four weeks after treatment): 4.0
herbicidal effect rating, MOOVA [3, 19]: 6.0
herbicidal effect rating, MOOVA [3, 20]: 6.0
herbicidal effect rating, MOOVA [3, 21]: 7.0
herbicidal effect rating, MOOVA [3, 22]: 7.0
herbicidal effect rating, CYPSE [4, 19]: 0.0
herbicidal effect rating, CYPSE [4, 20]: 0.0
herbicidal effect rating, CYPSE [4, 22]: 0.0
herbicidal effect rating, CYPIR (Cyperus iria; [19]): 0.0
herbicidal effect rating, CYPIR (Cyperus iria; [20]): 0.0
herbicidal effect rating, CYPIR (Cyperus iria; [21]): 0.0
herbicidal effect rating, CYPIR (Cyperus iria; [22]): 2.0
herbicidal effect rating, SAGPY (Sagittaria pygmaea, L.; [19]): 0.0
herbicidal effect rating, SAGPY (Sagittaria pygmaea, L.; [20]): 0.0
herbicidal effect rating, SAGPY (Sagittaria pygmaea, L.; [21]): 0.0
herbicidal effect rating, SAGPY (Sagittaria pygmaea, L.; [22]): 0.0
